From a melting point compilation (Tetko et al.; mined from patent text by program, amines drawn as free bases though some values may be those of a salt)

| Structure (SMILES) | melting point [°C] |
| --- | --- |
| CCCc1nc2c(N)nc3ccccc3c2n1CC(N)=O | > 300 |
| N=C(Nc1cccc([N+](=O)[O-])c1)N1CCCC1 | 117 to 118 |
| COC(=O)CCc1conc1-c1ccc(Cl)cc1 | 56 to 57 |
| O=C(O)CC1(CCCCCCCCCCC2(C(=O)O)CC2)CCC1 | 62 to 63.9 |
| COc1cccc(CNC(=O)c2nc3cccc(OCc4ccc(C#N)cc4)c3c(=O)[nH]2)c1 | 218 to 220 |
| Nc1nc(N)c(-c2ccc(Cl)cc2Cl)c(COCc2ccccc2)n1 | 171 to 172 |
| CCN(CC)CCCN1c2cc(C)c(C)cc2N(C)C(=O)c2c(C)cc(C)nc21 | 104 to 106 |
| Cc1nn(C)c(C(=O)O)c1-c1ccc(Cl)c(C(=O)NCC23CC4CC(CC(C4)C2)C3)c1 | 207 |
| Clc1ccc(-c2noc3ccc(CBr)cc23)cc1 | 142 |
| O=C1Cc2cc(NCc3ccccc3)ccc2N1 | 203 to 206 |
| CC(=O)OCC(COC(C)=O)NC(=O)c1cc(NC(=O)CCl)cc(C(=O)NC(COC(C)=O)COC(C)=O)c1 | 135 to 137 |
| O=CC12CC3CC(CC(C3)C1)C2 | 132 to 135 |
| CC(C)(C)C(O)(COc1ccc(Cl)cc1)Cn1cncn1 (stereo not given) | 57 |
| CC(=O)c1ccc(NC(=O)C=C(c2ccc(Cl)cc2)c2ccc(Cl)cc2)cc1 | 213 to 215 |
| CCCCCS(=O)(=O)NC(=O)/C=C/c1cc(OC(C)C)nn1Cc1ccc(C(F)(F)F)cc1Cl | 139 to 140 |
| Cc1c(CCc2ccccc2)c(=O)oc2cc(OCC#N)cc(OCC#N)c12 | 179 to 183 |
| COc1cc(OC)nc(NC(=O)NS(=O)(=O)c2c(C)nsc2OCC(Cl)(Cl)Cl)n1 | 176 to 180 |
| CCCCN(C(=O)CCc1ccc(OCCOC)cc1Oc1ncc(C(F)(F)F)cc1Cl)S(N)(=O)=O | 102 to 103 |
| N#Cc1ncn2c1nc(N1CCOCC1)c1ccccc12 | 225 to 228 |
| CC(C)CCCC(C)NC(=O)CCC(=NNC(N)=S)c1ccccc1 (stereo not given) | 58 to 65 |
| CS(=O)(=O)c1ccc(-n2cc(-c3ccc(Br)cc3)nc2-c2ccc(Cl)cc2)cc1 | 145 to 148 |
| CCCCC[C@H]1CC[C@H](CCc2ccc(O)cc2)CC1 | 102 |
| CNC1=Nc2ccc(Cl)cc2C(c2ccc[nH]2)=NC1 | 251 |
| Cc1nc(C)c(-c2[nH]nc3c2C(=O)c2c(NC(=O)NN4CCN(C)CC4)cccc2-3)s1 | 278 |

| Structure (SMILES) | melting point [°C] |
| --- | --- |
| NC(=O)c1ccc2c(c1)CCCN2CCN1CC=C(c2c[nH]c3cc(F)ccc23)CC1 | 130 to 133 |
| Cc1nc2cccc3n(CCC4CCN(S(=O)(=O)C(F)(F)F)CC4)c(=O)c1n23 | 169 to 170 |
| O=C1CCCc2[nH]c3ccc(F)cc3c21 | 255 to 260 |
| O=c1[nH]c2c(Cl)cccc2c(=O)n1CCCN1CC=C(c2cccc(Cl)c2)CC1 | 210 to 215 |
| N#CSCC(=O)c1ccccc1 | 75 to 77 |
| O=C1CC(c2cccc(-c3nc(CO)co3)c2)=Nc2ccc(-n3cccc3)cc2N1 | 240 to 242 |
| CC(C(=O)O)c1ccc(-n2cc(Cl)cn2)c(Cl)c1 (stereo not given) | 102 to 103 |
| c1cnn(Cc2ccc3c(c2)-c2[nH]nc(-c4ccsc4)c2C3)c1 | 245 to 247 |
| COc1ccc(CNc2nnc(Cl)c3cc(Cl)c(Cl)cc23)cc1Cl | 208 to 209 |
| Cc1ccccc1NNC(N)=S | 158 to 160 |
| CC(C)(C)OC(=O)CCc1cc(S(C)(=O)=O)cc(-c2nc(=O)c3ccc(F)cc3s2)n1 | 178 |
| Nc1nc2c(s1)-c1c(cnn1-c1ccccc1)CC2 | 307 to 308 |
| Cc1cc(C)c2ncc(NC(=O)c3cc(C)c(O)c(C)c3C)c(-c3ccccc3Cl)c2c1 | 261 to 264 |
| c1ccc2c(c1)ncc1nncn12 | 238 to 239 |
| O=C(O)c1nc2n(n1)-c1ccccc1N(c1cccc(C(F)(F)F)c1)C2 | 204 to 206 |
| CO[C@H]1CC[C@H](C(=O)N2CCC(c3[nH]nc4c3C(=O)c3c(NC(=O)NN5CCOCC5)cccc3-4)CC2)CC1 | 178 to 180 |
| O=C1CCC2=C1C(c1ccc([N+](=O)[O-])s1)C1=C(CCS1)N2 (stereo not given) | 251 to 254 |
| CN1CCN(c2cc3nc(C(C)(C)C)sc3cc2[N+](=O)[O-])CC1 | 132 to 135 |
| c1ccc2nc(C3CCCS3)ccc2c1 (stereo not given) | 63 |
| CC1(C)c2cc(OS(C)(=O)=O)ccc2OC1Cl (stereo not given) | 59 to 61 |
| CCN(CC)c1ccc(C(=O)NCCNC(=O)c2ccc(N(CC)CC)cc2)cc1 | 166 to 167 |
| CN(CCO)C(c1ccc(Cl)cc1)c1ccc(Cl)cc1 | 49 to 50 |
| COc1ccc(N2CCOP(=O)(Oc3ccccc3)OCC2)cc1 | 124 to 126 |
| CC1=CC(C=O)(NC(c2ccccc2)(c2ccccc2)c2ccccc2)NC=C1 (stereo not given) | 213 |

| Structure (SMILES) | melting point [°C] |
| --- | --- |
| COC(=O)COc1ccc(OCCC2CCN(c3ccncc3)CC2)cc1 | 86 to 88 |
| N#CC1=Cc2ccccc2C(N2CCN(N=Cc3ccccn3)CC2)c2ccccc21 (stereo not given) | 182 to 184 |
| O=C1Nc2ccc(Cl)cc2C(C#CC2CC2)(C(F)(F)F)CN1C1CC1 (stereo not given) | 195 to 196 |
| O=C(CNN1C(=O)c2ccccc2S1(=O)=O)N[C@@H](Cc1ccccc1)C(=O)O | 201 to 204 |
| COc1ccc2c(c1)C(CC#N)C(=O)CC2 (stereo not given) | 97 to 99 |
| Nc1cccnc1C(=O)NO | 131 to 133 |
| CN(C)C(=N)CSc1nnc(S)s1 | 95 to 97 |
| Cc1cc(C)c(CS(=O)c2ccccc2)c(-c2ccc(F)c(C)c2)c1 (stereo not given) | 75 to 85 |
| CCCCn1c(S)nnc1C(=O)O | 108 to 110 |
| Cc1ccc(C(=O)Nc2cc(-n3cncc3C)cc(C(F)(F)F)c2)cc1Nc1nccc(-c2cccnc2)n1 | 231 to 233 |
| O=C(Nc1nccs1)c1c(CO)nc2c(C(F)(F)F)cccc2c1O | 280 |
| CC#CCC/C=C/CC(=O)O | 43 to 45 |
| COc1ccc(Br)c(COc2ccc3ccc(OC)cc3c2Cl)c1 | 126 to 127 |
| CCOC(=O)C(C)(C#N)Cc1cc([N+](=O)[O-])ccc1Cl (stereo not given) | 72 to 74 |
| O=C(CNC(=O)c1ccc(S(=O)(=O)F)cc1)Nc1cccc(-c2cccc3c2/C(=C/c2ccc[nH]2)C(=O)N3)c1 | 248 to 250 |
| N#Cc1cccc(-n2ccc3ccccc32)c1 | 33 to 36 |
| CCNc1cc(NS(=O)(=O)c2ccc(N)cc2)nc(NC(C)C)n1 | 266 to 267 |
| CCN1C(=O)C(C)(C)C(=O)N(C)c2cc(CN(CCn3ccc4oc(C)cc4c3=O)C(C)c3cccnc3)ccc21 (stereo not given) | 128 to 132 |
| Cc1cc(OC/C=C(\c2ccc(C#CCN3CCOCC3)cc2)c2ccc(S(C)=O)cc2)ccc1OCC(=O)O (stereo not given) | 137 to 142 |
| O=C(CCCO)Nc1cccc(/C=C/c2nc3ccccc3s2)c1 | 191 to 192 |
| COc1cc(C=O)cc(F)c1OC | 51 to 53 |
| COc1ccc(C2NC(=S)NC(C)=C2C(C)=O)cc1 (racemic) | 175 |

Results, then the molecule that gave them:

| melting point [°C] | Structure (SMILES) |
| --- | --- |
| 117 to 119 | Cc1c(NC(=O)c2ccc(OC[C@@H]3CCCO3)cc2)ccc2cc(CNCC3(C)COC3)cnc12 |
| 86 to 88 | CC(C)(C)OC(=O)c1cc(N=Nc2ccccc2CCC(=O)O)ccc1O |
| 96 to 97 | CCNc1cccnc1N1CCN(C(=O)c2ccc(C(=O)OC)cc2)CC1 |
| 245 | CN1C(=O)CC[C@]2(C)c3ccc(-c4ccc(O)c(Cl)c4)cc3CC[C@@H]12 |
| 169 to 171 | CCOC(=O)Nc1ccc2c(c1)c1c(n2Cc2cccc(F)c2)CC[C@@H](NC(=O)C(C)C)C1 |
| 97 to 100 | CC(=O)c1ccc2sc3ccccc3c2c1 |
| 205 to 207 | N=C(c1ccccc1)c1cc(F)cc(NC(=O)/C=C/c2ccccn2)c1 |
| 158 to 160 | CCCCn1ncc(/C=C(\Cc2cc3c(cc2OC)CCO3)C(=O)OCC)c1-c1ccc(Cl)cc1O |
| 179 to 182 | Cn1cc(C(=O)NCc2ccc(Cl)cc2)c(=O)c2cc(CN3CCOCC3)cc(C#CCCCO)c21 |
| 181 to 182 | Cc1ccc(C(=O)NC(NC(=S)Nc2cccc([N+](=O)[O-])c2)C(C)(C)C)cc1 (stereo not given) |
| 165 to 167 | CC(C)c1ccc(-c2nc(-c3cccc(C(=O)O)c3)ns2)cc1 |
| 122 to 124 | Cc1ccc(COC(=O)N2CCC[C@H]2C(=O)N[C@H](CO)C(C)C)cc1 |
| 164 to 167 | CN(C)CCCOc1ccc2sc(C(=O)Nc3ccccc3N)cc2c1 |
| 144 to 146 | N#CN1CCC(c2nn(C(=O)c3ccccc3)c3ccccc23)CC1 |
| 194 to 196 | COC(=O)c1ccc2c(nc(C)n2Cc2ccccc2)c1C1=NC(C)(C(C)C)C(=O)N1 (stereo not given) |
| 134 to 136 | CCNC(=O)NCCCN1C(=Nc2ccc3c(c2)OCO3)CSC1c1ccccc1OC (stereo not given) |
| 134 | CCN(CC)c1ccc(C=C2Cc3ccccc3C2=O)c(C)c1 |
| 94 to 95 | CC(C)(C)OC(=O)NCCc1ccc(CC(=O)O)cc1 |
| 215 to 217 | COc1ccc(C(=O)NCc2ccc3c(c2)C(=O)N(C2CCC(=O)NC2=O)C3=O)cc1 (stereo not given) |
| > 260 | Cc1nc2ccccc2n1Cc1cc([N+](=O)[O-])ccc1O |
| 66 to 69 | CCOC(=O)c1cc(-c2ccccc2)nc2c(N)cccc12 |
| 153 to 155 | O=C(O)c1ccccc1C(=O)Nc1ccc(C(=O)N2CCCC(O)c3cc(Cl)ccc32)cn1 (stereo not given) |
| 206 to 208 | COC(=O)c1ccc(OC(=O)c2cc(C)c3c(c2C)C2(CCS3(=O)=O)OCCO2)cc1 |
| 112 to 117 | Nc1sc2c(c1C(=O)c1ccco1)CCN(Cc1ccccc1)C2 |
| 169 to 170 | CN(C)CCNC(=O)Cc1ccc(NC(=O)C2CCN(C(=O)OCc3ccccc3)CC2)cc1 |
| 185 to 186 | CC(=O)COc1c(-c2ccccc2)c(=O)[nH]c2cc(Cl)ccc12 |
| 178 to 180 | COc1ccc(C2Sc3ccccc3N(CCN(C)C)C(=O)C2OC(=O)c2cccc([N+](=O)[O-])c2)cc1 (stereo not given) |
| 98 to 99.8 | CCOC(=O)Cn1c(-c2cccc(Cl)c2)nc2cccnc21 |
| 98 | COc1ccc2cc([C@H](C)C(=O)OCC3(CO[N+](=O)[O-])COCOC3)ccc2c1 |
| 167 to 168 | COc1ccc(CC(=O)O)cc1C(=O)NCc1ccc(C(F)(F)F)cc1 |
